{"source": "patent US8030293B2", "about": "“Methods of optimizing drug therapeutic efficacy for treatment of immune-mediated gastrointestinal disorders” (Hopital-Sainte-Justine, priority 1998, dated 2011)", "key": {"[1]": {"assay": "6-MP metabolite levels by gender and age in pediatric IBD patients (Example III)", "type": "in vivo, human", "details": "for 6-MMP level / 6-TG level: TPMT wild type", "description": "These patients were wild type for TPMT. Patients were assessed based on gender and age as it relates to puberty. Puberty is established at 12 years of age in girls and 14 years of age in boys."}, "[2]": {"details": "erythrocytes", "excerpt": "The 93 patients were pediatric patients, with 80 diagnosed as having CD, 8 diagnosed as having UC, and 5 diagnosed as having indeterminate colitis (CD or UC). All but 7 patients were given AZA. The dosages were converted to 6-MP equivalents using a factor of 2.07 as described in Example I. For some patients, two or more samples were obtained and analyzed. Response to 6-MP was defined by clinical remission (HBI<5, closed fistula) without corticosteroids. Disease activity and physical exam were ascertained at each clinic visit at which 6-MP metabolite levels were determined (clinical evaluation point). Hematological, pancreatic and hepatic laboratory parameters were evaluated simultaneously Erythrocyte 6-TG and 6-MMP concentrations (pmol/8×10^8 RBC) were measured by HPLC (Cuffari et al., supra, 1996a).\nThe number of samples corresponds to the number of different samples obtained from the 93 patients."}, "[3]": {"details": "human, in vivo", "description": "All but 7 patients were given AZA.\nToxicity was measured essentially as described previously (Cuffari et al., supra; 1996a)."}, "[4]": {"assay": "Responsiveness to 6-MP drug therapy by TPMT genotype in IBD patients (Example IV)", "type": "in vivo, human", "description": "(§1) The genotype of TPMT was determined in IBD patients that were responders and non responders. Genotyping of TPMT was measured essentially as described previously (Baccichet et al., Leuk. Res. 21:817-823 (1997); Zietkiewicz et al., Gene 205:161-171 (1997))."}, "[5]": {"assay": "Erythrocyte 6-MP metabolite levels by reverse phase HPLC in IBD patients on 6-MP drug (Example I)", "details": "erythrocytes", "quoted_text": "Briefly, blood was sampled (n=89) prior to daily administration of 6-MP in 55 IBD patients (CD n=51, UC n=4) receiving 1-1.5 mg/kg/day over at least a 4 month period (≧4 mo.). When AZA was administered, a conversion factor of 2.07 was used to convert to the equivalent 6-MP dose. Twice as much AZA is administered relative to 6-MP to have an equivalent dose of 6-MP.\nErythrocyte 6-TG, 6-MMP and 6-MP thiobases were measured (pmol/8×10^8 RBC) using reverse phase HPLC. Briefly, blood samples were collected in EDTA (ethylene diamine tetraacetic acid) as anticoagulant. Cells were centrifuged and washed three times with an equal volume of 0.9% saline. Washed packed cells were stored at −70° C. until analysis was performed.\nFor acid hydrolysis, 500 μl deionized H2O, 50 μl thawed red blood cells, 40 μl of the appropriate standard or control, 500 μl 3.0 NH2SO4, and 300 μl 10 mM dithiothreitol (DTT) was added to an 8 ml glass screw cap tube. The capped tubes were placed in a heating block preheated to 100° C. and hydrolyzed. For 6-MMP, hydrolysis was carried out for 5 hours. For 6-MP and 6-TG, hydrolysis was carried out for 1 hour. After the incubation, tubes were cooled in a room temperature water bath. To tubes hydrolyzed for 5 hours (6-MMP), 400 μl 3.4 N NaOH and 1.0 ml 2 M Tris buffer, pH 9.0 was added. To tubes hydrolyzed for 1 hour (6-MP/6-TG), 450 μl 3.4 N NaOH and 500 μl 2M Tris base was added. A volume of 4 ml 0.03% phenylmercuric chloride in methylene chloride was added to each tube. The tubes were capped and lightly agitated on a bi-directional rotator (15 min for 6-MMP and 30 min for 6-MP/6-TG). The contents were transferred to a 15 ml polypropylene centrifuge tube and centrifuged at 3500 rpm for 3 min at 10° C. The aqueous phase (top layer) was discarded, and 3.0 ml of the organic phase (bottom layer) was transferred to a clean 15 ml polypropylene centrifuge tube. The analytes in the organic phase were back extracted by adding 225 μl 0.1 N HCl and lightly mixing on an orbital rotator for 5 min. Following vortexing for 30 seconds, the tubes were centrifuged at 3500 rpm for 3 min at 10° C.\nFor 6-MMP analysis, 50 μl analyte was analyzed on a C18 reverse phase column with the mobile phase containing 1 mM DTT, 2.078% triethylamine and 4% methanol, adjusted to pH 3.2 with concentrated H3PO4. For 6-MP and 6-TG analysis, 100 μl analyte was analyzed on a C18 reverse phase column using 0.1 M H3PO4 and 1 mM DTT in H2O as the mobile phase.\nClinical remission was defined as a Harvey Bradshaw Index <5 in those patients off corticosteroids or weaned to a level of prednisone ≦0.4 mg/kg/od (administered every other day). Treatment failures were defined as non-responders (HBI>5 or steroid dependence) or cessation of 6-MP due to side effects."}, "[6]": {"assay": "6-TG levels by TPMT genotype in IBD patients (Example IV)", "type": "in vivo, human", "details": "for mean 6-TG: in pmol/8×10^8 RBC", "description": "as §1, with “(1997)). […] All heterozygote patients were responders to 6-MP.” for “(1997)).”"}}, "note": "Like-named read-outs stand apart in the source and are kept apart here. Marks after values point to notes of the source that are not given here."}
{"compound": "CSc1ncnc2nc[nH]c12", "note": "[6-MMP, 6-methyl-mercaptopurine]", "values": [{"measurement": "Ratio 6-MMP/6-TG", "setting": "[1]; Boys (0-14 y)", "result": 17.24}, {"measurement": "6-MMP level", "setting": "[1]; Boys (0-14 y), 51 observed", "result": 3681.6, "unit": "pmol per 8 × 10^8 RBC"}, {"measurement": "6-MMP level", "setting": "[1]; Boys (>14 y), 104 observed, p<0.001", "result": "1662.3* pmol per 8 × 10^8 RBC"}, {"measurement": "Ratio 6-MMP/6-TG", "setting": "[1]; Boys (>14 y), p<0.001", "result": "6.78*"}, {"measurement": "Ratio 6-MMP/6-TG", "setting": "[1]; Girls (0-12 y)", "result": 18.52}, {"measurement": "6-MMP level", "setting": "[1]; Girls (0-12 y), 39 observed", "result": 3447.0, "unit": "pmol per 8 × 10^8 RBC"}, {"measurement": "Ratio 6-MMP/6-TG", "setting": "[1]; Girls (>12 y)", "result": 12.55}, {"measurement": "6-MMP level", "setting": "[1]; Girls (>12 y), 116 observed", "result": 3304.5, "unit": "pmol per 8 × 10^8 RBC"}, {"measurement": "Median 6-MMP", "setting": "[2]; Relapse, n=72 samples", "result": 1602, "unit": "pmol/8×10^8 RBC"}, {"measurement": "Median 6-MMP", "setting": "[2]; Remission, n=106 samples", "result": 2600, "unit": "pmol/8×10^8 RBC"}, {"measurement": "6-MMP level associated with hepatotoxicity", "setting": "[3]", "result": "greater than 7000 pmol 6-MMP/8×10^8"}]}
{"compound": "Sc1ncnc2nc[nH]c12", "note": "[6-MP, 6-Mercaptopurine]", "values": [{"measurement": "response of TPMT heterozygotes to 6-MP", "setting": "[4]; 8 of 93 patients heterozygotes", "result": "All 8 heterozygotes responded"}, {"measurement": "Non. responder", "setting": "[4]; TPMT Heterozygote IBD patients", "result": 0, "unit": "%"}, {"measurement": "Responder", "setting": "[4]; TPMT Heterozygote IBD patients", "result": 100, "unit": "%"}, {"measurement": "Non. responder", "setting": "[4]; TPMT Normal IBD patients", "result": 45, "unit": "%"}, {"measurement": "Responder", "setting": "[4]; TPMT Normal IBD patients", "result": 55, "unit": "%"}]}
{"compound": "Nc1nc2nc[nH]c2c(=S)[nH]1", "note": "[6-TG, 6-thioguanine]", "values": [{"measurement": "6-TG level", "setting": "[1]; Boys (0-14 y), 51 observed", "result": 235.0, "unit": "pmol per 8 × 10^8 RBC"}, {"measurement": "6-TG level", "setting": "[1]; Boys (>14 y), 104 observed", "result": 222.5, "unit": "pmol per 8 × 10^8 RBC"}, {"measurement": "6-TG level", "setting": "[1]; Girls (0-12 y), 39 observed", "result": 182.2, "unit": "pmol per 8 × 10^8 RBC"}, {"measurement": "6-TG level", "setting": "[1]; Girls (>12 y), 116 observed", "result": 217.2, "unit": "pmol per 8 × 10^8 RBC"}, {"measurement": "median 6-TG", "setting": "[5]; Hematologic toxicity group, n=6, p<0.03", "result": "414+ pmol per 8×10^8 RBC"}, {"measurement": "median 6-TG", "setting": "[5]; Hepatic toxicity group, n=7", "result": 258, "unit": "pmol per 8×10^8 RBC"}, {"measurement": "median 6-TG", "setting": "[5]; Non-responders, n=31, p<0.001", "result": "184* pmol per 8×10^8 RBC"}, {"measurement": "median 6-TG", "setting": "[5]; Pancreatic toxicity group, n=6", "result": 211, "unit": "pmol per 8×10^8 RBC"}, {"measurement": "median 6-TG", "setting": "[5]; Responders, n=58 samples, 6-MP 1-1.5 mg/kg/day ≥4 mo.", "result": 295, "unit": "pmol per 8×10^8 RBC"}, {"measurement": "mean 6-TG", "setting": "[6]; TPMT Heterozygote patients, p less than 0.0001", "result": "589*"}, {"measurement": "mean 6-TG", "setting": "[6]; TPMT Normal patients", "result": 247}, {"measurement": "6-TG levels of TPMT heterozygotes", "setting": "[6]; all 8 heterozygotes", "result": "> 230", "unit": "pmol/8×10^8 RBC"}, {"measurement": "median 6-TG", "setting": "[2]; Relapse, n=72 samples", "result": 197, "unit": "pmol/8×10^8 RBC"}, {"measurement": "median 6-TG", "setting": "[2]; Remission, n=106 samples, p<0.0001", "result": "309* pmol/8×10^8 RBC"}]}
